One assay addresses T1, XPO1 protein (Homo sapiens, UniProt O14980).
T1 construct: Sixteen hours later, NES-GFP plasmid was transfected with liposome; endogenous in cells
The assay is described as follows: Inhibitory activity for XPO1 protein (NES-GFP nuclear export, laser confocal microscope). The class given is cell-based. Particulars: NES-GFP nuclear export, cells treated for 2 hours. From the text:
NES (nuclear export signal) is a nuclear export signal peptide recognized by XPO1 protein. XPO1 recognizes NES sequence peptide segment of biomacromolecule and exports the biomacromolecule out of nucleus. NES-GFP protein is obtained by co-expressing green fluorescence protein GFP and NES sequence peptide segment by using a eukaryotic expression plasmid. Inhibitory activity of the representative compound for XPO1 protein can be assessed by detecting influence of the compound on NES-GFP cell localization.
The cells were digested with trypsin, counted, and inoculated on 96-well plate in an amount of 1.5×10^4 cells per well. Sixteen hours later, NES-GFP plasmid was transfected with liposome.

A further assay has as its system HMLE-Snail cell line. The assay is described as follows: Formation of HMLE-Snail cell line spheroids. It is filed as cell-based. Particulars: 10 μg/ml, treated for 24 hours; control = 100; read-out: Colony (%): cell colony number of drug-treated group/cell colony number of control group × 100%. Here is the method:
HMLE-Snail cell line is one of most classic cell models for studying tumor cell metastasis and EMT path. HMLE-Snail cell line highly expresses Snail protein, and thus one of most remarkable features thereof is that it has spherical cellular morphology (spheroid). […] The HMLE-Snail cell line used in the present invention was donated by Dr. Robert Weinberg from America Massachusetts Whitehead Institute. HMLE-Snail cells were suspended in a liquid culture medium (in which B-27 and N-2 were added, purchased from America Invitrogen Corporation) containing DMEM/F12 in a ratio of 1:1, in an amount of 1.0×10^3 cells/ml, and cultured in an ultra low attachment culture plate so as to allow spheroids to be formed. Seven days later, spheroids were collected by centrifugation, and counted. […] Docetaxel is a common clinical chemotherapy drug.

18 compounds from US10315990B2, “Isothiocyanate compounds and isothiocyanate XPO1 protein inhibitor drugs thereof” (DRIVINGFORCE THERAPEUTICS Co., Ltd., priority 2015, dated 2019) can be followed below.

T1 sequence (O14980 whole entry, species assumed): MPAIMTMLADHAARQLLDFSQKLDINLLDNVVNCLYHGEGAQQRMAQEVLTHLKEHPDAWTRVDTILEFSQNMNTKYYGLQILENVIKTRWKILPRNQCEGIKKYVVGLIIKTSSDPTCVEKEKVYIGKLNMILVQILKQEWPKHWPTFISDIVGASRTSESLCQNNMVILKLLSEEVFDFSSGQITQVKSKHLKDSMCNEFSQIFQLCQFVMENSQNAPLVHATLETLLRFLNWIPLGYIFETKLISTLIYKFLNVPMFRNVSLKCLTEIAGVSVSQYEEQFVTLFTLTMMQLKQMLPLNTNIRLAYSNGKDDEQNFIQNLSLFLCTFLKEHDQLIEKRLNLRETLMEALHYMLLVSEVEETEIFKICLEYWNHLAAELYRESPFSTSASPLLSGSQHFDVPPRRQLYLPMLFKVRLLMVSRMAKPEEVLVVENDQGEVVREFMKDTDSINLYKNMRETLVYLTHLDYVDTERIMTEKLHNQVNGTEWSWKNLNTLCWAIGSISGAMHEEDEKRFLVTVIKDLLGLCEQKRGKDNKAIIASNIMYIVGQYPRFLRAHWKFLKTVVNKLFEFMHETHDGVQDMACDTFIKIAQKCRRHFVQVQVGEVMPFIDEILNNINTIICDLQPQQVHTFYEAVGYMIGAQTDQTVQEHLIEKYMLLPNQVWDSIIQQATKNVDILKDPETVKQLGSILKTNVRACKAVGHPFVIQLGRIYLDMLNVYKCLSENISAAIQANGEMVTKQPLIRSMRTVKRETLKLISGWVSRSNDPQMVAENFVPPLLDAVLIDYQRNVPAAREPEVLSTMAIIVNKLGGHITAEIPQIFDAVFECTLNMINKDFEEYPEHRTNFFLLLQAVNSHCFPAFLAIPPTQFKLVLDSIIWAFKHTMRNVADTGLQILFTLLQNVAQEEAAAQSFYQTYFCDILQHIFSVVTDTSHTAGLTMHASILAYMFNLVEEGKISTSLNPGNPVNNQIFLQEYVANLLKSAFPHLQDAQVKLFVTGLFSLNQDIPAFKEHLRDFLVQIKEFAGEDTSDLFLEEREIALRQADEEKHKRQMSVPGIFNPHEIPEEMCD

Take `CC(C)C[S+]([O-])/C=C/CCN=C=S` (centres unmarked) [Compound F-04, reference compound]: at XPO1 protein, the “Activity (μM): inhibitory activity for XPO1 protein (full inhibitory concentration)” value (from here on “Activity (μM): inhibitory activity”) lay in the range of 10 to 15 µM. In addition, in the assay on HMLE-Snail cell line, the activity at 10 µg/mL was 60 to 65%.

`COc1cc([S+]([O-])/C=C/CCN=C=S)cc(C(F)(F)F)c1` (centres unmarked) [Compound I-05]: at XPO1 protein, the “Activity (μM): inhibitory activity” value is 0.5 to 1 µM. The activity at 10 µg/mL in the assay on HMLE-Snail cell line was 20 to 25%.

In the case of `NS(=O)(=O)c1cc([S+]([O-])/C=C/CCN=C=S)cc(C(F)(F)F)c1` (centres unmarked) [Compound I-07], the “Activity (μM): inhibitory activity” value on XPO1 protein lay within 0.5 to 1 µM. Also, in the assay with HMLE-Snail cell line, the activity at 10 µg/mL lay in the range of 20 to 25%.

Take `[O-][S+](/C=C/CCN=C=S)c1ccc(N2CCOCC2)cc1` (centres unmarked) [Compound I-09]: the “Activity (μM): inhibitory activity” value at XPO1 protein is 1 to 5 µM. In addition, the activity at 10 µg/mL with HMLE-Snail cell line fell in the range of 25 to 30%.

As for `[O-][S+](/C=C/CCN=C=S)c1ccc2c(c1)CCCC2` (centres unmarked) [Compound I-10], the “Activity (μM): inhibitory activity” value on XPO1 protein lay within 1 to 5 µM. Moreover, the activity at 10 µg/mL in the assay with HMLE-Snail cell line lay within 30 to 35%.

As for `[O-][S+](/C=C/CCN=C=S)c1ccc2cc3ccccc3cc2c1` (centres unmarked) [Compound I-12], at XPO1 protein, the “Activity (μM): inhibitory activity” value lay within 1 to 5 µM. The activity at 10 µg/mL in the assay on HMLE-Snail cell line is 30 to 35%.

Turning to `[O-][S+](/C=C/CCN=C=S)c1ccc2cccc3c2c1CC=C3` (centres unmarked) [Compound I-13], the “Activity (μM): inhibitory activity” value on XPO1 protein lay in the range of 1 to 5 µM. For the same compound, the activity at 10 µg/mL in the assay on HMLE-Snail cell line is 30 to 35%.

For `[O-][S+](/C=C/CCN=C=S)c1ccc2c(c1)Cc1ccccc1-2` (centres unmarked) [Compound I-14], the “Activity (μM): inhibitory activity” value at XPO1 protein is 1 to 5 µM. Moreover, the activity at 10 µg/mL in the assay on HMLE-Snail cell line was in the range of 25 to 30%.

For the compound `[O-][S+](/C=C/CCN=C=S)c1cccnc1` (centres unmarked) [Compound I-15], the “Activity (μM): inhibitory activity” value on XPO1 protein was 1 to 5 µM. Further, the activity at 10 µg/mL in the assay with HMLE-Snail cell line lay in the range of 35 to 40%.

`[O-][S+](/C=C/CCN=C=S)c1cncc(C(F)(F)F)c1` (centres unmarked) [Compound I-16]: the “Activity (μM): inhibitory activity” value on XPO1 protein is 0.5 to 1 µM. Besides, the activity at 10 µg/mL in the assay with HMLE-Snail cell line is 35 to 40%.

For `[O-][S+](/C=C/CCN=C=S)c1ccc2ncncc2c1` (centres unmarked) [Compound I-18], the “Activity (μM): inhibitory activity” value at XPO1 protein was 1 to 5 µM. Also, the activity at 10 µg/mL in the assay with HMLE-Snail cell line was in the range of 30 to 35%.

Regarding `O=c1ccc2cc([S+]([O-])/C=C/CCN=C=S)ccc2o1` (centres unmarked) [Compound I-19], the “Activity (μM): inhibitory activity” value at XPO1 protein lay in the range of 1 to 5 µM. The activity at 10 µg/mL in the assay with HMLE-Snail cell line lay within 25 to 30%.

Regarding `[O-][S+](/C=C/CCN=C=S)c1nc2cc(C(F)(F)F)ccc2s1` (centres unmarked) [Compound I-21], at XPO1 protein, the “Activity (μM): inhibitory activity” value is 1 to 5 µM. The activity at 10 µg/mL in the assay on HMLE-Snail cell line fell in the range of 30 to 35%.

Consider `[O-][S+](/C=C/CCN=C=S)c1nc2ccccc2[nH]1` (centres unmarked) [Compound I-22], for which the “Activity (μM): inhibitory activity” value at XPO1 protein is 1 to 5 µM. The activity at 10 µg/mL in the assay on HMLE-Snail cell line was in the range of 30 to 35%.

Consider `[O-][S+](/C=C/CCN=C=S)c1nc2ccc(C(F)(F)F)cc2[nH]1` (centres unmarked) [Compound I-23], for which the “Activity (μM): inhibitory activity” value on XPO1 protein was in the range of 1 to 5 µM. In addition, the activity at 10 µg/mL with HMLE-Snail cell line was 30 to 35%.

As to `COc1ccc2nc([S+]([O-])/C=C/CCN=C=S)[nH]c2c1` (centres unmarked) [Compound I-24], the “Activity (μM): inhibitory activity” value at XPO1 protein lay in the range of 1 to 5 µM. The activity at 10 µg/mL with HMLE-Snail cell line fell in the range of 20 to 25%.

As for `[O-][S+](/C=C/CCN=C=S)c1ccc(-c2ccccc2)cc1` (centres unmarked) [Compound I-26], at XPO1 protein, the “Activity (μM): inhibitory activity” value is 0.5 to 1 µM. Further, the activity at 10 µg/mL with HMLE-Snail cell line was in the range of 20 to 25%.

`C[S+]([O-])/C=C/CCN=C=S` (centres unmarked) [SFE, sulforaphene, reference compound]: at XPO1 protein, the “Activity (μM): inhibitory activity” value is 10 to 15 µM.
